Test systems include MALME-3M melanoma; UO-31 renal; SF-268 CNS; MOLT-4 leukemia; LOX IMVI melanoma; CCRF-CEM leukemia; RPMI-8226 leukemia; CAKI-1 renal; HT29 colon; HCT-116 colon.
Holding throughout (experiment): NCI tumour cell line growth inhibition, 48 h

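Test compounds were applied to cells in 96-well plates for 48 hours at 5 doses. GI50 marks 50% less growth. At the TGI there is no net growth.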

Turning to `Cc1c2cc(Cl)c3ccccc3c2c[n+]2ccccc12`, the GI50 was 0.378 µM with MALME-3M melanoma; 9.18 µM in the assay with UO-31 renal; 0.364 µM in the assay with SF-268 CNS; 4.5 µM with MOLT-4 leukemia; 15 µM in the assay with LOX IMVI melanoma; 3.36 µM with CCRF-CEM leukemia. Further, the GI50 in the assay with RPMI-8226 leukemia was 7.75 µM; in the assay with CAKI-1 renal it was 21.8 µM; with HT29 colon it was 14 µM; in the assay with HCT-116 colon it was 7.2 µM. In addition, the TGI was 2.8 µM in the assay on MALME-3M melanoma; more than 100 µM in the assay on UO-31 renal; 1.58 µM in the assay with SF-268 CNS; 34.9 µM in the assay with MOLT-4 leukemia; 38.9 µM in the assay with LOX IMVI melanoma; 26.3 µM in the assay on CCRF-CEM leukemia. Also, the TGI in the assay with RPMI-8226 leukemia is 46 µM; with CAKI-1 renal it was more than 100 µM; with HT29 colon, 43.1 µM; in the assay with HCT-116 colon, 32.9 µM.
With `COC(=O)COc1ccc(/C=C2/N=C(c3ccccc3)N(c3c(C)n(C)n(-c4ccccc4)c3=O)C2=O)cc1`, the GI50 in the assay on MALME-3M melanoma was 19.7 µM; in the assay on UO-31 renal, 17 µM; in the assay on SF-268 CNS, 12.8 µM; in the assay on MOLT-4 leukemia, 23 µM; in the assay with LOX IMVI melanoma it was 18 µM; with CCRF-CEM leukemia it was 13.2 µM. Also, the GI50 with RPMI-8226 leukemia was 21.7 µM; in the assay on CAKI-1 renal it was more than 100 µM; with HT29 colon, 18.3 µM; with HCT-116 colon it was 32.4 µM. Also, the TGI with MALME-3M melanoma came out at 40.6 µM; in the assay on UO-31 renal, 32.3 µM; in the assay with SF-268 CNS it was 30.5 µM; with MOLT-4 leukemia, 59.8 µM; in the assay on LOX IMVI melanoma it was 32.8 µM; with CCRF-CEM leukemia, 50.2 µM. The TGI in the assay on RPMI-8226 leukemia was 44.8 µM; in the assay on CAKI-1 renal, more than 100 µM; in the assay with HT29 colon, 35.7 µM; with HCT-116 colon, more than 100 µM.
Consider `CN(C)CCSS(=O)(=O)O`, for which the TGI in the assay with MALME-3M melanoma, with UO-31 renal, in the assay with SF-268 CNS, with MOLT-4 leukemia, with LOX IMVI melanoma and in the assay with CCRF-CEM leukemia was more than 100 µM each time. For the same compound, the TGI in the assay on RPMI-8226 leukemia, in the assay with CAKI-1 renal, in the assay with HT29 colon and in the assay on HCT-116 colon was more than 100 µM throughout.
Take `Cc1nc2c(n1C)C(=O)c1ccccc1C2=O`: the GI50 in the assay on MALME-3M melanoma was 4.74 µM; in the assay with UO-31 renal, 77.6 µM; with SF-268 CNS, more than 100 µM; with MOLT-4 leukemia it was 85 µM; with LOX IMVI melanoma it was 38.5 µM; in the assay with CCRF-CEM leukemia, 59.3 µM. Further, the GI50 in the assay with RPMI-8226 leukemia was more than 100 µM; in the assay with CAKI-1 renal, 29.4 µM; in the assay with HT29 colon, 37.2 µM; in the assay with HCT-116 colon, 40 µM. Also, the TGI was 28.5 µM with MALME-3M melanoma; more than 100 µM with UO-31 renal; more than 100 µM with SF-268 CNS; more than 100 µM in the assay with MOLT-4 leukemia; more than 100 µM in the assay on LOX IMVI melanoma; more than 100 µM in the assay on CCRF-CEM leukemia. For the same compound, the TGI in the assay with RPMI-8226 leukemia, in the assay on CAKI-1 renal, in the assay with HT29 colon and with HCT-116 colon was more than 100 µM in each case.
Turning to `O=P1(S)OC[C@H]2O[C@@H]3[C@H](F)[C@@H]2OP(O)(=S)OC[C@H]2O[C@H]([C@H](F)[C@@H]2O1)n1cnc2c(ncnc21)NC/C=C/CNc1ncnc2c1ncn23` (stereo not given in full), the GI50 in the assay on MALME-3M melanoma, in the assay with UO-31 renal, in the assay on SF-268 CNS, with MOLT-4 leukemia, with LOX IMVI melanoma and in the assay on CCRF-CEM leukemia was more than 100 µM each time. Moreover, the GI50 is more than 100 µM with RPMI-8226 leukemia, more than 100 µM in the assay on CAKI-1 renal, 43.7 µM in the assay with HT29 colon and more than 100 µM in the assay with HCT-116 colon. For the same compound, the TGI with MALME-3M melanoma, with UO-31 renal, with SF-268 CNS, in the assay with MOLT-4 leukemia, in the assay on LOX IMVI melanoma and in the assay on CCRF-CEM leukemia was more than 100 µM throughout. In addition, the TGI in the assay on RPMI-8226 leukemia, with CAKI-1 renal, in the assay on HT29 colon and in the assay with HCT-116 colon was more than 100 µM in each case.
For `COc1cc2c(cc1O)CC1c3c(cc(O)c(OC)c3-2)CCN1C` (stereo not given), the TGI in the assay on MALME-3M melanoma, in the assay with UO-31 renal, with SF-268 CNS, in the assay with MOLT-4 leukemia, with LOX IMVI melanoma and with CCRF-CEM leukemia was more than 100 µM in each case. The TGI in the assay on RPMI-8226 leukemia, in the assay with CAKI-1 renal, with HT29 colon and with HCT-116 colon was more than 100 µM each time.
As to `Cc1ccc(N=Nc2c(O)ccc3ccccc23)cc1`, the TGI in the assay on MALME-3M melanoma was more than 100 µM; with UO-31 renal it was more than 100 µM; with SF-268 CNS, more than 100 µM; in the assay on MOLT-4 leukemia, more than 100 µM; in the assay on LOX IMVI melanoma it was more than 100 µM; in the assay with CCRF-CEM leukemia it was 75.8 µM. Also, the TGI with RPMI-8226 leukemia, in the assay on CAKI-1 renal, in the assay on HT29 colon and with HCT-116 colon was more than 100 µM each time.
`O=C(c1ccccc1)c1c(NCC(O)CN2CCOCC2)n(Cc2ccccc2)c(=O)n(Cc2ccccc2)c1=O` (stereo not given): the GI50 in the assay on MALME-3M melanoma was 48.8 µM; with UO-31 renal, 34.5 µM; with SF-268 CNS, more than 79.8 µM; in the assay with MOLT-4 leukemia, 32.4 µM; in the assay with LOX IMVI melanoma, 38.6 µM; in the assay on CCRF-CEM leukemia, 41.3 µM. Besides, the GI50 is 24 µM in the assay with RPMI-8226 leukemia, 32.5 µM with CAKI-1 renal, 26.4 µM with HT29 colon and 34.1 µM in the assay with HCT-116 colon. Also, the TGI in the assay on MALME-3M melanoma was more than 100 µM; with UO-31 renal it was more than 100 µM; in the assay with SF-268 CNS, more than 100 µM; in the assay with MOLT-4 leukemia it was more than 95.5 µM; with LOX IMVI melanoma, more than 100 µM; in the assay on CCRF-CEM leukemia, more than 100 µM. Moreover, the TGI with RPMI-8226 leukemia is more than 92.4 µM; with CAKI-1 renal, more than 100 µM; in the assay with HT29 colon, more than 62.9 µM; in the assay with HCT-116 colon, more than 100 µM.
For the compound `COc1ccc(-c2nc(-c3nc4ccc(F)cc4[nH]3)c3ccccn23)cc1`, the GI50 is 5.32 µM with MALME-3M melanoma; 6.99 µM in the assay on UO-31 renal; 7.2 µM in the assay on SF-268 CNS; 3.83 µM in the assay on MOLT-4 leukemia; 10.8 µM with LOX IMVI melanoma; 4.39 µM in the assay with CCRF-CEM leukemia. Moreover, the GI50 in the assay with RPMI-8226 leukemia was 2.86 µM; with CAKI-1 renal, 12.1 µM; in the assay on HT29 colon, 7.13 µM; with HCT-116 colon, 3.61 µM. Besides, the TGI is 27.1 µM in the assay on MALME-3M melanoma; 56.2 µM in the assay with UO-31 renal; 57.8 µM with SF-268 CNS; more than 100 µM in the assay on MOLT-4 leukemia; more than 100 µM with LOX IMVI melanoma; more than 100 µM with CCRF-CEM leukemia. Moreover, the TGI in the assay on RPMI-8226 leukemia is more than 100 µM; in the assay on CAKI-1 renal it was more than 100 µM; with HT29 colon, more than 100 µM; in the assay on HCT-116 colon, 17.8 µM.

The values are drawn from PubChem BioAssay (NCI).
